Tests used:
L1210 [1] = assay: Inhibition of murine L1210 leukemia cell proliferation, high polyamine transporter activity; format: functional, cell-based; conditions: Mus musculus
CHO-MG [2] = assay: Inhibition of MGBG-resistant CHO-MG cell proliferation, no polyamine transporter activity; format: functional, cell-based; conditions: Cricetulus griseus
CHO-MG [3] = assay: Relative inhibition of CHO-MG and chinese hamster ovary cell proliferation; format: functional
CHO = assay: Inhibition of chinese hamster ovary cell proliferation, high polyamine transporter activity; format: functional, cell-based; conditions: Cricetulus griseus
L1210 [4] = assay: Affinity for cellular polyamine transporter system as inhibition [14C]spermidine uptake in L1210 cells; format: functional, cell-based, Mus musculus

Row | Compound | IC50 (L1210 [1]) | IC50 (CHO-MG [2]) | Ratio (CHO-MG [3]) | IC50 (CHO) | Ki (L1210 [4])
1 | Cl.Cl.Cl.NCCCCNCCCCNCc1c2ccccc2cc2ccccc12 | – | – | 148 | 0.45 µM | –
2 | CCN(CCCCNCCCCN)Cc1c2ccccc2cc2ccccc12.Cl.Cl.Cl | 22.2 µM | 21.9 µM | 1 | 22.2 µM | 24.4 µM
3 | Cl.Cl.Cl.NCCCNCCCNCc1c2ccccc2cc2ccccc12 | 1.8 µM | 3.4 µM | 1.8 | 1.9 µM | 33.4 µM

The next lines start with results.

Row | IC50 (L1210 [1]) | Compound | IC50 (CHO-MG [2]) | Ratio (CHO-MG [3]) | IC50 (CHO) | Ki (L1210 [4])
4 | 18.5 µM | NCCCCNCCCCN1CCCCCCCCCCCCCC1 | 28.2 µM | 1 | 30 µM | 6.2 µM
5 | 3 µM | NCCCNCCCN1CCCCCCCCCCCCCC1 | 10 µM | 1 | 10.5 µM | 9.9 µM

— ChEMBL document CHEMBL1139531, “Synthesis and biological evaluation of dihydromotuporamine derivatives in cells containing active polyamine transporters” (J Med Chem, 2005)
